Legend:
Format in all cases: in vivo
[1] = tested on: serotonin; assay: combined APO, TRY, NOR test in rats: tryptamine convulsions (central); details: for ED50: Rattus norvegicus
From the text: (§1) The antipsychotic activity of the subject compounds is evidenced by the experimental data obtained in at least one of two different test procedures, viz. the combined apomorphine (APO), tryptamine (TRY) and norepinephrine (NOR) test in rats, and the apomorphine test in dogs. Said combined apomorphine, tryptamine and norepinephrine test is described in Ach. int. Pharmacodyn., 227, 238-253 (1977) and provides an empirical evaluation of the relative specificity with which drugs may effect particular neurotransmitter systems centrally (CNS) as well as peripherally. […] Said apomorphine test in dogs is described in Arzneim.-Forsch. (Drug Res.), 9, 765-767 (1959) and provides a measure of the duration of action of the tested compounds.

[2] = tested on: dopamine; assay: apomorphine test in dogs (duration of action); details: for (APO)-dog test, ED50, 4 hr: 240 min; for (APO)-dog test, ED50, 16 hr: 960 min; for ED50: Canis lupus familiaris
From the text: The compounds of formula (I) show the additional advantage of being eliminated rather slowly from the body and thus of being long acting. This can be evidenced, for example, by measuring the plasma levels after oral administration to dogs and by the long acting antiemetic effect exerted by the present compounds on dogs challenged with the dopamine agonist apomorphine. Especially the compounds of formula (I) wherein R^3 is a higher alkylcarbonyloxy radical have a long duration of action. […] Consequently, the present compounds allow for a more efficient therapy: the slow elimination facilitates maintaining a stable plasma concentration at a non-toxic, effective level and the reduction in the number of administrations may be expected to result in better compliance of the subject to be treated with the prescribed medication.
as §1

[3] = tested on: serotonin; assay: combined APO, TRY, NOR test in rats: tryptamine hyperaemia (peripheral); details: for ED50: Rattus norvegicus
From the text: as §1

[4] = tested on: dopamine; assay: combined apomorphine (APO), tryptamine (TRY) and norepinephrine (NOR) test in rats: apomorphine; details: for ED50: Rattus norvegicus
From the text: as §1

[5] = tested on: norepinephrine; assay: combined APO, TRY, NOR test in rats: norepinephrine; details: for ED50: Rattus norvegicus
From the text: as §1

[6] = 1 h, read-out: (APO)-dog test, ED50, 1 hr

Structure (SMILES)	(TRY)-convulsions ED50 [1]	(APO)-dog test, ED50, 4 hr [2]	(APO)-dog test, ED50, 16 hr [2]	ED50 [2, 6]	(TRY)-hyperaemia ED50 [3]	ED50 [4]	ED50 [5]	(APO)-dog test, ED50, 1 hr ([2]; 1 hr, 60 min)	(APO) ED50 [4]	(NOR) ED50 [5]	ED50 [1]	ED50 ([2]; 4 h, read-out: (APO)-dog test, ED50, 4 hr)	ED50 ([2]; 16 h, read-out: (APO)-dog test, ED50, 16 hr)	ED50 [3]
Cc1nc2n(c(=O)c1CCN1CCC(c3noc4cc(F)ccc34)CC1)CCCC2O (single isomer, unassigned; (+)) [Compound 2, (+)-3-[2-[4-(6-fluoro-1,2-benzisoxazol-3-yl)-1-piperidinyl]ethyl]-6,7,8,9-tetrahydro-9-hydroxy-2-methyl-4H-pyrido[1,2-a]-pyrimidin-4-one]	0.08 mg/kg	0.03 mg/kg	0.06 mg/kg	0.015 mg/kg	0.00031 mg/kg	0.31 mg/kg	1.25 mg/kg	–	–	–	–	–	–	–
Cc1nc2n(c(=O)c1CCN1CCC(c3noc4cc(F)ccc34)CC1)CCCC2O (single isomer, unassigned; (-)) [Compound 3, (-)-3-[2-[4-(6-fluoro-1,2-benzisoxazol-3-yl)-1-piperidinyl]-ethyl]-6,7,8,9-tetrahydro-9-hydroxy-2-methyl-4H-pyrido[1,2-a]-pyrimidin-4-one]	0.31 mg/kg	0.007 mg/kg	0.015 mg/kg	–	0.00063 mg/kg	–	–	0.008 mg/kg	0.31 mg/kg	0.63 mg/kg	–	–	–	–
Cc1nc2n(c(=O)c1CCN1CCC(c3noc4cc(F)ccc34)CC1)CCCC2O (stereo not drawn) [Compound 1, 3-[2-[4-(6-fluoro-1,2-benzisoxazol-3-yl)-1-piperidinyl]ethyl]-6,7,8,9-tetrahydro-9-hydroxy-2-methyl-4H-pyrido[1,2-a]pyrimidin4-one]	–	–	–	0.015 mg/kg	–	0.25 mg/kg	0.08 mg/kg	–	–	–	0.31 mg/kg	0.015 mg/kg	0.015 mg/kg	0.002 mg/kg
CC(=O)OC1CCCn2c1nc(C)c(CCN1CCC(c3noc4cc(F)ccc34)CC1)c2=O (stereo not drawn) [Compound 4, 3-[2-[4-(6-fluoro-1,2-benzisoxazol-3-yl)-1-piperidinyl]ethyl]-6,7,8,9-tetrahydro-2-methyl-4-oxo-4H-pyrido[1,2-a]pyrimidin-9-ol acetate(ester)]	–	–	–	0.015 mg/kg	–	0.31 mg/kg	–	–	–	–	0.08 mg/kg	–	–	0.00031 mg/kg
CCCC(=O)OC1CCCn2c1nc(C)c(CCN1CCC(c3noc4cc(F)ccc34)CC1)c2=O (stereo not drawn) [Compound 5, [3-[2-[4-(6-fluoro-1,2-benzisoxazol-3-yl)-1-piperidinyl]ethyl]-6,7,8,9-tetrahydro-2-methyl-4-oxo-4H-pyrido[1,2-a]pyrimidin-9-yl]butanoate]	–	–	–	0.008 mg/kg	–	0.31 mg/kg	0.16 mg/kg	–	–	–	0.31 mg/kg	–	–	0.00125 mg/kg

Source: US5158952A, “3-[2-[4-(6-fluoro-1,2-benzisoxozol-3-yl)-1-piperidinyl]ethyl]-6,7,8,9 tetrahydro-9-hydroxy-2-methyl-4H-pyrido [1,2-a]pyrimidin-4-one, compositions and method of use” (Janssen Pharmaceutica N.V., priority 1989, dated 1992)
